Assay results as given in the supplement of paper PMC10627819.

Columns and labels:
[1] = system: S. pneumoniae D39V; experiment: Bliss interaction score (quartile over a dose matrix) (fitness difference); higher = more antagonism (negative = synergy)
Procedure, shortened: (§1)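 The Bliss score is observed minus expected fitness, where expected fitness is the product of the single-drug fitness values inferred from the combination data. Fitness is the OD595 at the onset of stationary phase over the plate's robust no-drug mean, capped at 1. Scores are summarised by quartiles over technical, biological and donor/recipient replicates.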

[2] = system: B. subtilis 168; experiment: as above
Procedure, shortened: as §1

[3] = system: S. aureus DSM 20231; experiment: as above
Procedure, shortened: as §1

[4] = system: S. aureus Newman; experiment: as above
Procedure, shortened: as §1

[5] = system: S. pneumoniae D39V; experiment: fitness (endpoint OD595 vs no drug) (fraction); higher = more growth
Procedure, shortened: (§2)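 With the first reading as background, OD595 was measured every 30 min for 14 h in 384-well plates kept at 37 °C and inoculated at OD595 0.01. TSB, LB Lennox or CY was the medium. Fitness is the optical density at the transition into stationary phase divided by the robust mean of no-drug control wells, with a cap of 1.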

[6] = system: B. subtilis 168; experiment: as above
Procedure, shortened: as §2

[7] = system: S. aureus Newman; experiment: as above
Procedure, shortened: as §2
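For Bliss interaction score (quartile over a dose matrix) in this document: first quartile when negative (synergy) and third quartile when positive (antagonism).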
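For fitness (endpoint OD595 vs no drug) in this document: OD595 on entry to stationary phase over no-drug wells; at most 1.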

CO/N=C(\C(=O)N[C@@H]1C(=O)N2C(C(=O)O)=C(COC(C)=O)CS[C@H]12)c1csc(N)n1 [Cefotaxime] + CC1=C(C(=O)O)N2C(=O)[C@@H](NC(=O)[C@H](N)c3ccccc3)[C@H]2SC1 [Cephalexin]
Details	Bliss interaction score
[1]	-0.0656
[2]	0.101
[3]	0.0629
[4]	0.09

fitness, one replicate
Details	partner 0.125 µg/mL	partner 0.25 µg/mL	partner 0.5 µg/mL	partner 1 µg/mL
[5], first compound 0.0018 µg/mL	≥ 1	0.959	1	–
[5], first compound 0.0035 µg/mL	0.953	0.967	0.977	–
[5], first compound 0.007 µg/mL	0.777	0.875	0.724	–
[6], first compound 0.00775 µg/mL	–	0.868	0.903	0.851
[6], first compound 0.0155 µg/mL	–	0.729	0.728	0.748
[6], first compound 0.031 µg/mL	–	0.62	0.631	0.615
[7], first compound 0.039 µg/mL	–	0.904	0.952	≥ 1
[7], first compound 0.312 µg/mL	–	0.402	0.38	0.371

Details	fitness
[5], first compound 0.0018 µg/mL, partner 1 µg/mL	0.815
[5], first compound 0.0018 µg/mL, partner 2 µg/mL	0.242
[5], first compound 0.0018 µg/mL, partner 4 µg/mL	0.0372
[5], first compound 0.0035 µg/mL, partner 1 µg/mL	0.679
[5], first compound 0.0035 µg/mL, partner 2 µg/mL	0.168
[5], first compound 0.0035 µg/mL, partner 4 µg/mL	0.0436
[5], first compound 0.007 µg/mL, partner 2 µg/mL	0.0426
[5], first compound 0.007 µg/mL, partner 4 µg/mL	0.0416
[6], first compound 0.5 µg/mL, partner 0.125 µg/mL	0.235
[6], first compound 0.5 µg/mL, partner 0.25 µg/mL	0.221
[6], first compound 0.5 µg/mL, partner 0.5 µg/mL	0.248
[6], first compound 1 µg/mL, partner 0.125 µg/mL	0.152
[6], first compound 1 µg/mL, partner 0.25 µg/mL	0.123
[6], first compound 1 µg/mL, partner 0.5 µg/mL	0.148
[6], first compound 2 µg/mL, partner 0.125 µg/mL	0.124
[6], first compound 2 µg/mL, partner 0.25 µg/mL	0.125
[6], first compound 2 µg/mL, partner 0.5 µg/mL	0.0819
[7], first compound 0.078 µg/mL, partner 0.25 µg/mL	0.751
[7], first compound 0.078 µg/mL, partner 0.5 µg/mL	0.797
[7], first compound 0.078 µg/mL, partner 1 µg/mL	0.817
[7], first compound 0.156 µg/mL, partner 0.25 µg/mL	0.636
[7], first compound 0.156 µg/mL, partner 0.5 µg/mL	0.631
[7], first compound 0.156 µg/mL, partner 1 µg/mL	0.713
[7], first compound 0.625 µg/mL, partner 0.5 µg/mL	0.248
[7], first compound 1.25 µg/mL, partner 0.25 µg/mL	0.159
[7], first compound 1.25 µg/mL, partner 0.5 µg/mL	0.111
[7], first compound 1.25 µg/mL, partner 1 µg/mL	0.0956
[7], first compound 2.5 µg/mL, partner 0.25 µg/mL	0.0395
[7], first compound 2.5 µg/mL, partner 0.5 µg/mL	0.0255
[7], first compound 2.5 µg/mL, partner 1 µg/mL	0.0566
